Here are results for 13 compounds from patent US20250179103A1, “6-OXODECAHYDROPYRROLO[1,2-A][1,5]DIAZOCINE AND 6-OXODECAHYDRO-4H-PYRROLO[2,1-D][1,5]THIAZOCINE DERIVATIVES AS STAT3 AND STAT6 MODULATORS FOR THE TREATMENT OF CANCER AND INFLAMMATORY CONDITIONS” (Recludix Pharma, Inc., priority 2022, published 2025).

Assay [1] concerns the target T1, Recombinant STAT6 protein (STAT6(W123-T658)) (Homo sapiens, UniProt P42226).
T1 construct: Recombinant STAT6 protein (STAT6(W123-T658))
T1 sequence (P42226 123-658): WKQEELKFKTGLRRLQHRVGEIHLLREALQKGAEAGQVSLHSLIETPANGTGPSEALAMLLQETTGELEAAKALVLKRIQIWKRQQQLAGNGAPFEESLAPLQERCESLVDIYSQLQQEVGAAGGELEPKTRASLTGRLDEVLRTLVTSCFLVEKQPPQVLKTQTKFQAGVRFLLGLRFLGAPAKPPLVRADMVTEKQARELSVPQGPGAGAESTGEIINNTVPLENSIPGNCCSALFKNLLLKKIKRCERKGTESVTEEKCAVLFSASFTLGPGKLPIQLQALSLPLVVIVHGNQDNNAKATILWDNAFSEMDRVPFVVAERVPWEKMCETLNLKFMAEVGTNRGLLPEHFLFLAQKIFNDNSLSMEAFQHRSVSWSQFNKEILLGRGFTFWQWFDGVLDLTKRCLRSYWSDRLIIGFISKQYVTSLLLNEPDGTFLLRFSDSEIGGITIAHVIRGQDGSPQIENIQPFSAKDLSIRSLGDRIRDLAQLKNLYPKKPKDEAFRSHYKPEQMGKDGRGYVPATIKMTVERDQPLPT
Description: STAT6 Fluorescence Polarization (FP) Assay. The class given is binding. The note with it: STAT6(W123-T658) 250 nM, probe 5-FAM-ApYKPFQDLI-NH2 2 nM, 45-minute incubation. The method, boiled down: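 Displacement of a fluorescent phosphotyrosine peptide (5-FAM-ApYKPFQDLI-NH2, 2 nM) from STAT6(W123-T658) (250 nM), 1% DMSO, pH 7.4 HEPES buffer. After 45 min at room temperature, polarization (mP) was plotted versus log compound concentration and fitted by nonlinear regression to give IC50.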

The target in assay [2] is T2, Recombinant STAT3 protein (STAT3(G127-I722)) (Homo sapiens, UniProt P40763).
T2 construct: Recombinant STAT3 protein (STAT3(G127-I722))
T2 sequence (P40763 127-722): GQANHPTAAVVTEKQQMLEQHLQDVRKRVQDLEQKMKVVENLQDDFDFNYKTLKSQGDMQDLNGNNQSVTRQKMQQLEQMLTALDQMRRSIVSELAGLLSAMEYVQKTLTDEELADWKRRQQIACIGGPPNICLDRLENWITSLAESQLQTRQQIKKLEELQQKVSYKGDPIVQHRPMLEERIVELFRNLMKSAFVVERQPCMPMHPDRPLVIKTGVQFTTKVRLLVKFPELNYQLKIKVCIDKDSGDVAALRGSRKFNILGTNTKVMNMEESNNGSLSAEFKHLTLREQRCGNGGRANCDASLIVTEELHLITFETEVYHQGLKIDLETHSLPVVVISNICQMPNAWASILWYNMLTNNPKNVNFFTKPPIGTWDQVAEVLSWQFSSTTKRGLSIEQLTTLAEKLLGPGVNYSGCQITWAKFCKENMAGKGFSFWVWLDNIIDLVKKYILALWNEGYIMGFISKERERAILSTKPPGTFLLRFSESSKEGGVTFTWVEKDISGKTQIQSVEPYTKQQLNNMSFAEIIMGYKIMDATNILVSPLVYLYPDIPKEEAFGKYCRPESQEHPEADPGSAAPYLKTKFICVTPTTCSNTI
In words: STAT3 Fluorescence Polarization (FP) Assay. It is filed as binding. The note with it: STAT3(G127-I722) 25 nM, probe 5-FAM-GpYLPQTV-NH2 2 nM, 45-minute incubation. Summed up: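 Fluorescence polarization after a 45-min room-temperature incubation measured compound displacement of a 2 nM fluorescein-labelled phosphotyrosine peptide (5-FAM-GpYLPQTV-NH2) from 25 nM recombinant STAT3(G127-I722). Buffer was 10 mM HEPES pH 7.4 with 1% DMSO final. IC50s were fitted by nonlinear regression of mP against log concentration.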

Where only a bound is given, the exact number is not on record here.

Take `O=C(N[C@H]1CN(c2ccccn2)C[C@H]2CC[C@@H](C(=O)N3CCOCC3)N2C1=O)c1ccc2ccc(C(F)P(=O)(O)O)cc2c1` (stereo partly drawn) [Compound 393, (fluoro(7-(((4S,7S,9aR)-7-(morpholine-4-carbonyl)-5-oxo-2-(pyridin-2-yl)octahydro-1H-pyrrolo[1,2-a][1,4]diazepin-4-yl)carbamoyl)naphthalen-2-yl)methyl) phosphonic acid]: the IC50 in assay [1] was more than 30 µM; in assay [2], more than 10 µM.

Turning to `Cc1ccc2onc(C(=O)N3CC[C@H]4CC[C@@H](C(=O)N5CCOCC5)N4C(=O)[C@@H](NC(=O)c4ccc5cnc(CP(=O)(O)O)cc5c4)C3)c2c1` [Compound 394, ((6-(((5S,8S,10aR)-3-(5-methylbenzo [d]isoxazole-3-carbonyl)-8-(morpholine-4-carbonyl)-6-oxodecahydropyrrolo [1,2-a][1,5]diazocin-5-yl)carbamoyl)isoquinolin-3-yl)methyl) phosphonic acid], the IC50 in assay [1] was 3 to 30 µM; in assay [2] it was more than 10 µM.

Consider `N#C[C@@H]1CN(C(=O)[C@@H]2CC[C@@H]3CCN(CC(F)F)C[C@H](NC(=O)c4cc5cc(C(F)P(=O)(O)O)ccc5s4)C(=O)N32)C[C@H]1c1ccccc1` (stereo partly drawn) [Compound 395, ((2-(((5S,8S,10aR)-8-((3S,4R)-3-cyano-4-phenyl-pyrrolidine-1-carbonyl)-3-(2,2-difluoroethyl)-6-oxodecahydropyrrolo [1,2-a][1,5]diazocin-5-yl)carbamoyl)benzo[b]thiophen-5-yl)fluoromethyl) phosphonic acid], for which the concentration for half-maximal inhibition (IC50) in assay [1] was not above 0.3 µM; in assay [2], 1 to 10 µM.

As for `Cc1ccc2onc(C(=O)N3CC[C@H]4CC[C@@H](C(=O)N5CCOCC5)N4C(=O)[C@@H](NC(=O)c4ccc5ccc(CP(=O)(O)O)nc5c4)C3)c2c1` [Compound 396, ((7-(((5S,8S,10aR)-3-(5-methylbenzo[d]isoxazole-3-carbonyl)-8-(morpholine-4-carbonyl)-6-oxodecahydropyrrolo [1,2-a][1,5]diazocin-5-yl)carbamoyl)quinolin-2-yl)methyl)phosphonic acid], the values for the IC50 in assay [1] and in assay [2] were 3 to 30 µM and more than 10 µM, respectively.

Consider `Cc1ccc2onc(C(=O)N3CC[C@H]4CC[C@@H](C(=O)N5C[C@@H](C)O[C@@H](C)C5)N4C(=O)[C@@H](NC(=O)c4ccc5ccc(C(F)P(=O)(O)O)cc5c4)C3)c2c1` (stereo partly drawn) [Compound 397, ((7-(((5S,8S,10aR)-8-((2S,6R)-2,6-dimethylmorpholine-4-carbonyl)-3-(5-methylbenzo[d]isoxazole-3-carbonyl)-6-oxodecahydropyrrolo [1,2-a][1,5]diazocin-5-yl)carbamoyl)naphthalen-2-yl)fluoromethyl)phosphonic acid], for which the values for the IC50 in assay [1] and in assay [2] were not above 0.3 µM and more than 10 µM, respectively.

For the compound `N#Cc1cccc(C2CN(C(=O)[C@@H]3CC[C@@H]4CCN(Cc5ncccn5)C[C@H](NC(=O)c5cc6cc(C(F)P(=O)(O)O)ccc6s5)C(=O)N43)C2)n1` (stereo partly drawn) [Compound 398, ((2-(((5S,8S,10aR)-8-(3-(6-cyanopyridin-2-yl)azetidine-1-carbonyl)-6-oxo-3-(pyrimidin-2-ylmethyl)decahydropyrrolo[1,2-a][1,5]diazocin-5-yl)carbamoyl)benzo[b]thiophen-5-yl)fluoromethyl)phosphonic acid], the IC50 in assay [1] is 3 to 30 µM; in assay [2] it was not above 0.1 µM.

With `N#Cc1cccc(C2CN(C(=O)[C@@H]3CC[C@@H]4CCN(Cc5ncccn5)C[C@H](NC(=O)c5cc6cc(CP(=O)(O)O)ccc6s5)C(=O)N43)C2)n1` [Compound 399, ((2-(((5S,8S,10aR)-8-(3-(6-cyanopyridin-2-yl)azetidine-1-carbonyl)-6-oxo-3-(pyrimidin-2-ylmethyl)decahydro-pyrrolo[1,2-a][1,5]diazocin-5-yl)carbamoyl)benzo[b]thiophen-5-yl)methyl) phosphonic acid], the IC50 is more than 30 µM in assay [1] and 0.1 to 1 µM in assay [2].

For `CC(=O)N1C[C@H](NC(=O)[C@@H]2CC[C@@H]3CCN(Cc4ncccn4)C[C@H](NC(=O)c4cc5cc(C(F)P(=O)(O)O)ccc5s4)C(=O)N32)[C@@H](F)C1` (stereo partly drawn) [Compound 400, ((2-(((5S,8S,10aR)-8-(((3S,4S)-1-acetyl-4-fluoropyrrolidin-3-yl)carbamoyl)-6-oxo-3-(pyrimidin-2-ylmethyl)decahydropyrrolo[1,2-a][1,5]diazocin-5-yl)carbamoyl)benzo[b]thiophen-5-yl)fluoromethyl)phosphonic acid], the 50% inhibitory concentration (IC50) in assay [1] was 3 to 30 µM; in assay [2], 0.1 to 1 µM.

Regarding `O=C(N[C@H]1CN(C(=O)NCC23CCN(CC2)CC3)CC[C@H]2CC[C@@H](C(=O)N3CC(c4cccnc4)C3)N2C1=O)c1cc2cc(C(F)(F)P(=O)(O)O)ccc2s1` [Compound 401, (difluoro(2-(((5S,8S, 10aR)-6-oxo-8-(3-(pyridin-3-yl)azetidine-1-carbonyl)-3-((quinuclidin-4-ylmethyl)carbamoyl)decahydropyrrolo [1,2-a][1,5]diazocin-5-yl)carbamoyl)benzo[b]thiophen-5-yl)methyl) phosphonic acid], the IC50 in assay [1] was 3 to 30 µM; in assay [2], not above 0.1 µM.

As for `O=C(N[C@H]1CN(Cc2ccccc2-n2cncn2)CC[C@H]2CC[C@@H](C(=O)N3CC(c4cccnc4)C3)N2C1=O)c1cc2cc(C(F)(F)P(=O)(O)O)ccc2s1` [Compound 402, ((2-(((5S,8S,10aR)-3-(2-(1H-1,2,4-triazol-1-yl)benzyl)-6-oxo-8-(3-(pyridin-3-yl)azetidine-1-carbonyl)decahydro-pyrrolo[1,2-a][1,5]diazocin-5-yl)carbamoyl)benzo[b]thiophen-5-yl)difluoromethyl) phosphonic acid], the IC50 in assay [1] was 3 to 30 µM; in assay [2], not above 0.1 µM.

`CN1CCN(c2ccc(C(=O)N3CC[C@H]4CC[C@@H](C(=O)N5CC(c6cccnc6)C5)N4C(=O)[C@@H](NC(=O)c4cc5cc(C(F)(F)P(=O)(O)O)ccc5s4)C3)c(Cl)c2)CC1` [Compound 403, ((2-(((5S,8S,10aR)-3-(2-chloro-4-(4-methylpiperazin-1-yl)benzoyl)-6-oxo-8-(3-(pyridin-3-yl)azetidine-1-carbonyl)decahydropyrrolo[1,2-a][1,5]diazocin-5-yl)carbamoyl)benzo[b]thiophen-5-yl)difluoromethyl) phophonic acid]: the IC50 was 3 to 30 µM in assay [1] and not above 0.1 µM in assay [2].

Regarding `O=C(N[C@H]1CS(=O)(=O)CC[C@H]2CC[C@@H](C(=O)N3CC(c4cccnc4)C3)N2C1=O)c1cc2cc(C(F)(F)P(=O)(O)O)ccc2s1` [Compound 404, ((2-(((5R,8S,10aR)-3,3-dioxido-6-oxo-8-(3-(pyridin-3-yl)azetidine-1-carbonyl)octahydro-4H-pyrrolo[2,1-d][1,5]thiazocin-5-yl)carbamoyl)benzo[b]thiophen-5-yl)difluoromethyl) phosphonic acid], the concentration for half-maximal inhibition (IC50) in assay [1] was 3 to 30 µM; in assay [2] it was not above 0.1 µM.

In the case of `O=C(N[C@H]1CSCC[C@H]2CC[C@@H](C(=O)N3CC(c4cccnc4)C3)N2C1=O)c1cc2cc(C(F)(F)P(=O)(O)O)ccc2s1` [Compound 405, (difluoro(2-(((5R,8S, 10aR)-6-oxo-8-(3-(pyridin-3-yl)azetidine-1-carbonyl)octahydro-4H-pyrrolo[2,1-d][1,5]thiazocin-5-yl)carbamoyl)benzo[b]thiophen-5-yl)methyl) phosphonic acid], the figures for the IC50 in assay [1] and in assay [2] were 3 to 30 µM and not above 0.1 µM, respectively.
